The values that follow come from patent US20150018311A1, “THERAPEUTIC BORON-CONTAINING COMPOUNDS” (priority 2012, published 2015).

Common to all, as to assay: Growth in liquid media in presence of test compound
What all share (type): cell-based

Experiment [1] deals with Staphylococcus aureus (ATCC 25923).
Experiment [2] deals with Pseudomonas aeruginosa (ATCC 27853).
Experiment [3] has as its system Escherichia coli (ATCC 25922).
The subject of experiment [4] is Streptococcus pyogenes (ATCC 19615).
Experiment [5] concerns Candida albicans (ATCC 90028).
Experiment [6] deals with Mycobacterium tuberculosis (H37Rv).

On to `CC1(C)C2CC3OB([C@@H](CNC(=O)[C@@H](N)Cc4ccccc4)Cc4ccc(F)cc4)O[C@]3(C)C1C2.Cl` (stereo partly drawn) [Compound 49], for which the “Growth in the presence of test compound, S. aureus” value (from here on “Growth in the presence … S. aureus”) in experiment [1] (5 mg/L), in experiment [1] (50 mg/L) and in experiment [1] (500 mg/L) was “+” in each case. Also, the “Growth in the presence of test compound, P. aeruginosa” value (from here on “Growth … P. aeruginosa”) in experiment [2] (5 mg/L), in experiment [2] (50 mg/L) and in experiment [2] (500 mg/L) was “+” each time. Further, the “Growth in the presence of test compound, E. coli” value (from here on “Growth in the presence … E. coli”) in experiment [3] (5 mg/L), in experiment [3] (50 mg/L) and in experiment [3] (500 mg/L) was “+” each time. Besides, the “Growth in the presence of test compound, S. pyogenes” value (“Growth in the presence … S. pyogenes” below) in experiment [4] (5 mg/L), in experiment [4] (50 mg/L) and in experiment [4] (500 mg/L) was “+” each time. Further, the “Growth in the presence of test compound, C. albicans” value (shortened to “Growth in the presence … C. albicans”) in experiment [5] (5 mg/L), in experiment [5] (50 mg/L) and in experiment [5] (500 mg/L) was “+” throughout. Moreover, the “Growth in the presence of test compound, M. tuberculosis” value (“Growth … M. tuberculosis” for short) was “±” in experiment [6] (5 mg/L), “−” in experiment [6] (50 mg/L) and “−” in experiment [6] (500 mg/L).
Consider `CC1(C)C2CC3OB(C(CNC(=O)C(N)CCCCN)Cc4ccc(OC(F)(F)F)cc4)OC3(C)C1C2.Cl.Cl` (stereo not drawn) [Compound 53], for which the “Growth in the presence … S. aureus” value in experiment [1] (5 mg/L), in experiment [1] (50 mg/L) and in experiment [1] (500 mg/L) was “+” each time. Further, the “Growth … P. aeruginosa” value in experiment [2] (5 mg/L) was “+”; in experiment [2] (50 mg/L) it was “+”; in experiment [2] (500 mg/L) it was “−”. Besides, the “Growth in the presence … E. coli” value in experiment [3] (5 mg/L), in experiment [3] (50 mg/L) and in experiment [3] (500 mg/L) was “+” throughout. Besides, the “Growth in the presence … S. pyogenes” value is “+” in experiment [4] (5 mg/L), “+” in experiment [4] (50 mg/L) and “−” in experiment [4] (500 mg/L). Besides, the entries for the “Growth in the presence … C. albicans” value in experiment [5] (5 mg/L), in experiment [5] (50 mg/L) and in experiment [5] (500 mg/L) were “+”, “+” and “−”, respectively. Besides, the “Growth … M. tuberculosis” value is recorded as “±” in experiment [6] (5 mg/L), “−” in experiment [6] (50 mg/L) and “−” in experiment [6] (500 mg/L).
`CC1(C)C2CC3OB([C@H](CCc4ccccc4)CNC(=O)[C@H](N)CCCCN)O[C@]3(C)C1C2` (stereo partly drawn) [Compound 20]: the “Growth in the presence … S. aureus” value in experiment [1] (5 mg/L) is “+”; in experiment [1] (50 mg/L), “−”; in experiment [1] (500 mg/L), “±”. Also, the “Growth … P. aeruginosa” value in experiment [2] (5 mg/L) is “+”; in experiment [2] (50 mg/L), “±”; in experiment [2] (500 mg/L) it was “±”. Moreover, the “Growth in the presence … E. coli” value in experiment [3] (5 mg/L), in experiment [3] (50 mg/L) and in experiment [3] (500 mg/L) was “+” in each case. Further, the “Growth in the presence … S. pyogenes” value in experiment [4] (5 mg/L) is reported as “+”; in experiment [4] (50 mg/L), “±”; in experiment [4] (500 mg/L), “±”. Also, the results for the “Growth in the presence … C. albicans” value in experiment [5] (5 mg/L), in experiment [5] (50 mg/L) and in experiment [5] (500 mg/L) were “+”, “±” and “±”, respectively. Also, the “Growth … M. tuberculosis” value in experiment [6] (5 mg/L) is reported as “+”; in experiment [6] (50 mg/L) it was “−”; in experiment [6] (500 mg/L) it was “−”.
Take `Cl.Cl.NCCCC[C@@H](N)C(=O)NC[C@@H](Cc1ccc(OC(F)(F)F)cc1)B(O)O` [Compound 43]: the figures for the “Growth in the presence … S. aureus” value in experiment [1] (5 mg/L), in experiment [1] (50 mg/L) and in experiment [1] (500 mg/L) were “+”, “+” and “−”, respectively. For the same compound, the “Growth … P. aeruginosa” value in experiment [2] (5 mg/L) is given as “+”; in experiment [2] (50 mg/L), “+”; in experiment [2] (500 mg/L), “−”. The results for the “Growth in the presence … E. coli” value in experiment [3] (5 mg/L), in experiment [3] (50 mg/L) and in experiment [3] (500 mg/L) were “+”, “+” and “−”, respectively. In addition, the “Growth in the presence … S. pyogenes” value in experiment [4] (5 mg/L) is reported as “+”; in experiment [4] (50 mg/L) it was “+”; in experiment [4] (500 mg/L), “−”. Further, the “Growth in the presence … C. albicans” value was “+” in experiment [5] (5 mg/L), “+” in experiment [5] (50 mg/L) and “±” in experiment [5] (500 mg/L). The “Growth … M. tuberculosis” value is reported as “+” in experiment [6] (5 mg/L), “+” in experiment [6] (50 mg/L) and “−” in experiment [6] (500 mg/L).
With `CC(B1OC2CC3CC(C3(C)C)C2(C)O1)C(Cc1ccccc1)NC(=O)C(N)CCCCN` (stereo not drawn) [Compound 30], the results for the “Growth in the presence … S. aureus” value in experiment [1] (5 mg/L), in experiment [1] (50 mg/L) and in experiment [1] (500 mg/L) were “+”, “+” and “−”, respectively. Further, the “Growth … P. aeruginosa” value in experiment [2] (5 mg/L) was “+”; in experiment [2] (50 mg/L) it was “+”; in experiment [2] (500 mg/L) it was “−”. Besides, the “Growth in the presence … E. coli” value is reported as “+” in experiment [3] (5 mg/L), “+” in experiment [3] (50 mg/L) and “−” in experiment [3] (500 mg/L). Moreover, the entries for the “Growth in the presence … S. pyogenes” value in experiment [4] (5 mg/L), in experiment [4] (50 mg/L) and in experiment [4] (500 mg/L) were “+”, “+” and “−”, respectively. For the same compound, the “Growth in the presence … C. albicans” value is “+” in experiment [5] (5 mg/L), “+” in experiment [5] (50 mg/L) and “−” in experiment [5] (500 mg/L). The “Growth … M. tuberculosis” value in experiment [6] (5 mg/L) is “+”; in experiment [6] (50 mg/L), “−”; in experiment [6] (500 mg/L), “−”.
As for `Cl.Cl.NCCCC[C@@H](N)C(=O)NC[C@@H](Cc1ccccc1)B(O)O` [Compound 48], the “Growth in the presence … S. aureus” value in experiment [1] (5 mg/L), in experiment [1] (50 mg/L) and in experiment [1] (500 mg/L) was “+” each time. In addition, the “Growth … P. aeruginosa” value in experiment [2] (5 mg/L), in experiment [2] (50 mg/L) and in experiment [2] (500 mg/L) was “+” in each case. The “Growth in the presence … E. coli” value in experiment [3] (5 mg/L), in experiment [3] (50 mg/L) and in experiment [3] (500 mg/L) was “+” in each case. Further, the “Growth in the presence … S. pyogenes” value in experiment [4] (5 mg/L), in experiment [4] (50 mg/L) and in experiment [4] (500 mg/L) was “+” each time. Besides, the “Growth in the presence … C. albicans” value in experiment [5] (5 mg/L), in experiment [5] (50 mg/L) and in experiment [5] (500 mg/L) was “+” throughout. Also, the “Growth … M. tuberculosis” value in experiment [6] (5 mg/L) is “±”; in experiment [6] (50 mg/L), “−”; in experiment [6] (500 mg/L), “−”.
Regarding `Cl.Cl.NCCCC[C@H](N)C(=O)NC[C@@H](Cc1ccc(OC(F)(F)F)cc1)B(O)O` [Compound 52], the “Growth in the presence … S. aureus” value in experiment [1] (5 mg/L), in experiment [1] (50 mg/L) and in experiment [1] (500 mg/L) was “+” throughout. Also, the “Growth … P. aeruginosa” value in experiment [2] (5 mg/L), in experiment [2] (50 mg/L) and in experiment [2] (500 mg/L) was “+” each time. Also, the “Growth in the presence … E. coli” value in experiment [3] (5 mg/L), in experiment [3] (50 mg/L) and in experiment [3] (500 mg/L) was “+” throughout. Also, the “Growth in the presence … S. pyogenes” value is reported as “+” in experiment [4] (5 mg/L), “+” in experiment [4] (50 mg/L) and “±” in experiment [4] (500 mg/L). In addition, the “Growth in the presence … C. albicans” value in experiment [5] (5 mg/L) is on record as “+”; in experiment [5] (50 mg/L) it was “+”; in experiment [5] (500 mg/L) it was “−”. Further, the “Growth … M. tuberculosis” value is recorded as “±” in experiment [6] (5 mg/L), “±” in experiment [6] (50 mg/L) and “−” in experiment [6] (500 mg/L).
Consider `C[C@H](N)C(=O)NC[C@@H](Cc1ccc(OC(F)(F)F)cc1)B1OC2CC3CC(C3(C)C)[C@@]2(C)O1.Cl` (stereo partly drawn) [Compound 56], for which the “Growth in the presence … S. aureus” value is on record as “+” in experiment [1] (5 mg/L), “±” in experiment [1] (50 mg/L) and “+” in experiment [1] (500 mg/L). Moreover, the “Growth … P. aeruginosa” value in experiment [2] (5 mg/L), in experiment [2] (50 mg/L) and in experiment [2] (500 mg/L) was “+” throughout. For the same compound, the “Growth in the presence … E. coli” value in experiment [3] (5 mg/L), in experiment [3] (50 mg/L) and in experiment [3] (500 mg/L) was “+” in each case. Further, the “Growth in the presence … S. pyogenes” value in experiment [4] (5 mg/L) is reported as “+”; in experiment [4] (50 mg/L), “−”; in experiment [4] (500 mg/L), “+”. Further, the “Growth in the presence … C. albicans” value was “+” in experiment [5] (5 mg/L), “±” in experiment [5] (50 mg/L) and “±” in experiment [5] (500 mg/L). For the same compound, the “Growth … M. tuberculosis” value in experiment [6] (5 mg/L) is listed as “+”; in experiment [6] (50 mg/L), “−”; in experiment [6] (500 mg/L), “−”.
